# Calls of active or inactive are those of the source. No cut-off for these calls is given here.
# Assays:
# [1] = Antioxidant activity assessed as reduction of ferric ion after 30 min by spectrophotometric analysis; assay type: functional
# Trichophyton rubrum [2] = experiment: Antifungal activity against Trichophyton rubrum after 18 hr by serial dilution method; assay type: functional
# Aspergillus niger [3] = experiment: Antifungal activity against Aspergillus niger after 18 hr by serial dilution method; assay type: functional
# Monascus purpureus [4] = experiment: Antifungal activity against Monascus purpureus after 18 hr by serial dilution method; assay type: functional
# Candida albicans [5] = experiment: Antifungal activity against Candida albicans after 18 hr by serial dilution method; assay type: functional
# [6] = test system: Staphylococcus epidermidis; experiment: Antibacterial activity against Staphylococcus albus after 18 hr by serial dilution method; assay type: functional
# Bacillus subtilis [7] = experiment: Antibacterial activity against Bacillus subtilis after 18 hr by serial dilution method; assay type: functional
# Staphylococcus aureus [8] = experiment: Antibacterial activity against Staphylococcus aureus after 18 hr by serial dilution method; assay type: functional
# Micrococcus luteus [9] = experiment: Antibacterial activity against Micrococcus luteus after 18 hr by serial dilution method; assay type: functional
# Vibrio cholerae [10] = experiment: Antibacterial activity against Vibrio cholerae after 18 hr by serial dilution method; assay type: functional
# Salmonella paratyphi [11] = experiment: Antibacterial activity against Salmonella enterica subsp. enterica serovar Paratyphi A after 18 hr by serial dilution method; assay type: functional
# Escherichia coli [12] = experiment: Antibacterial activity against Escherichia coli after 18 hr by serial dilution method; assay type: functional
# Pseudomonas aeruginosa [13] = experiment: Antibacterial activity against Pseudomonas aeruginosa after 18 hr by serial dilution method; assay type: functional
# Trichophyton rubrum [14] = experiment: Antifungal activity against Trichophyton rubrum after 24 hr by disk diffusion method; assay type: functional
# Aspergillus niger [15] = experiment: Antifungal activity against Aspergillus niger after 24 hr by disc diffusion method; assay type: functional
# Monascus purpureus [16] = experiment: Antifungal activity against Monascus purpureus after 24 hr by disk diffusion method; assay type: functional
# Candida albicans [17] = experiment: Antifungal activity against Candida albicans after 24 hr by disk diffusion method; assay type: functional
# [18] = test system: Staphylococcus epidermidis; experiment: Antibacterial activity against Staphylococcus albus after 24 hr by disk diffusion method; assay type: functional
# Bacillus subtilis [19] = experiment: Antibacterial activity against Bacillus subtilis after 24 hr by disk diffusion method; assay type: functional
# Staphylococcus aureus [20] = experiment: Antibacterial activity against Staphylococcus aureus after 24 hr by disk diffusion method; assay type: functional
# Micrococcus luteus [21] = experiment: Antibacterial activity against Micrococcus luteus after 24 hr by disk diffusion method; assay type: functional
# Pseudomonas aeruginosa [22] = experiment: Antibacterial activity against Pseudomonas aeruginosa after 24 hr by disc diffusion method; assay type: functional
# Escherichia coli [23] = experiment: Antibacterial activity against Escherichia coli after 24 hr by disc diffusion method; assay type: functional
# Salmonella paratyphi [24] = experiment: Antibacterial activity against Salmonella enterica subsp. enterica serovar Paratyphi A after 24 hr by disk diffusion method; assay type: functional
# Vibrio cholerae [25] = experiment: Antibacterial activity against Vibrio cholerae after 24 hr by disk diffusion method; assay type: functional
# [26] = test system: Radical scavenging activity; experiment: Antioxidant activity assessed as DPPH radical scavenging activity after 30 min by spectrophotometric analysis; assay type: functional
# [27] = test system: Mycobacterium tuberculosis; experiment: Growth inhibition of Mycobacterium tuberculosis H37Rv at 1 ug/ml after 7 days by resazurin microplate assay; assay type: functional, organism-based
# [28] = test system: Mycobacterium tuberculosis; experiment: Growth inhibition of Mycobacterium tuberculosis H37Rv at 100 ug/ml after 7 days by resazurin microplate assay; assay type: functional, organism-based
# [29] = test system: Mycobacterium tuberculosis; experiment: Growth inhibition of Mycobacterium tuberculosis H37Rv at 10 ug/ml after 7 days by resazurin microplate assay; assay type: functional, organism-based
# HeLa [30] = experiment: Cytotoxicity against Homo sapiens (human) HeLa cells after 48 hr by MTT assay; assay type: functional, cell-based
# HeLa [31] = experiment: Growth inhibition of Homo sapiens (human) HeLa cells at 100 uM after 48 hr by MTT assay; assay type: functional; details: read-out: GI
# HeLa [32] = experiment: Growth inhibition of Homo sapiens (human) HeLa cells at 50 uM after 48 hr by MTT assay; assay type: functional; details: read-out: GI
# HeLa [33] = experiment: Growth inhibition of Homo sapiens (human) HeLa cells at 25 uM after 48 hr by MTT assay; assay type: functional; details: read-out: GI
# HeLa [34] = experiment: Growth inhibition of Homo sapiens (human) HeLa cells at 12.5 uM after 48 hr by MTT assay; assay type: functional; details: read-out: GI
# HeLa [35] = experiment: Growth inhibition of Homo sapiens (human) HeLa cells at 6.25 uM after 48 hr by MTT assay; assay type: functional; details: read-out: GI
Molecule,MIC (Trichophyton rubrum [2]),MIC (Aspergillus niger [3]),MIC (Monascus purpureus [4]),MIC (Candida albicans [5]),MIC [6],MIC (Bacillus subtilis [7]),MIC (Staphylococcus aureus [8]),MIC (Micrococcus luteus [9]),MIC (Vibrio cholerae [10]),MIC (Salmonella paratyphi [11]),MIC (Escherichia coli [12]),MIC (Pseudomonas aeruginosa [13]),diameter of the inhibition zone (DIZ) (Trichophyton rubrum [14]),diameter of the inhibition zone (DIZ) (Aspergillus niger [15]),diameter of the inhibition zone (DIZ) (Monascus purpureus [16]),diameter of the inhibition zone (DIZ) (Candida albicans [17]),diameter of the inhibition zone (DIZ) [18],diameter of the inhibition zone (DIZ) (Bacillus subtilis [19]),diameter of the inhibition zone (DIZ) (Staphylococcus aureus [20]),diameter of the inhibition zone (DIZ) (Micrococcus luteus [21]),also measured
FERROUS SULFATE,,,,,,,,,,,,,,,,,,,,,Activity [1]: Active
COc1ccc(C2C(Cl)C(=O)N2NC(=O)NCC(=O)N2c3ccccc3Sc3ccccc32)cc1 (configuration not stated),250 mg/L,125 mg/L,250 mg/L,250 mg/L,62.5 mg/L,250 mg/L,250 mg/L,250 mg/L,125 mg/L,125 mg/L,125 mg/L,125 mg/L,6 mm,10 mm,6 mm,7 mm,10 mm,7 mm,5 mm,7 mm,diameter of the inhibition zone (DIZ) (Pseudomonas aeruginosa [22]): 7 mm; diameter of the inhibition zone (DIZ) (Escherichia coli [23]): 8 mm; diameter of the inhibition zone (DIZ) (Salmonella paratyphi [24]): 8 mm; diameter of the inhibition zone (DIZ) (Vibrio cholerae [25]): 9 mm
O=C(NCC(=O)N1c2ccccc2Sc2ccccc21)NN1C(=O)C(Cl)C1c1cccc(F)c1 (configuration not stated),125 mg/L,250 mg/L,125 mg/L,125 mg/L,125 mg/L,62.5 mg/L,250 mg/L,250 mg/L,125 mg/L,125 mg/L,250 mg/L,125 mg/L,7 mm,7 mm,10 mm,11 mm,11 mm,11 mm,7 mm,7 mm,Activity [1]: Active; EC50 [26]: 47 mg/L; diameter of the inhibition zone (DIZ) (Pseudomonas aeruginosa [22]): 11 mm; diameter of the inhibition zone (DIZ) (Escherichia coli [23]): 6 mm; diameter of the inhibition zone (DIZ) (Salmonella paratyphi [24]): 10 mm; diameter of the inhibition zone (DIZ) (Vibrio cholerae [25]): 9 mm
O=C(NCC(=O)N1c2ccccc2Sc2ccccc21)NN1C(=O)C(Cl)C1c1cccc(Cl)c1 (configuration not stated),250 mg/L,250 mg/L,250 mg/L,62.5 mg/L,125 mg/L,125 mg/L,250 mg/L,250 mg/L,250 mg/L,125 mg/L,500 mg/L,125 mg/L,6 mm,7 mm,7 mm,12 mm,11 mm,11 mm,7 mm,5 mm,growth inhibition (GI) [27]: inactive; growth inhibition (GI) [28]: Active; growth inhibition (GI) [29]: Active; diameter of the inhibition zone (DIZ) (Pseudomonas aeruginosa [22]): 10 mm; diameter of the inhibition zone (DIZ) (Escherichia coli [23]): 5 mm; diameter of the inhibition zone (DIZ) (Salmonella paratyphi [24]): 10 mm; diameter of the inhibition zone (DIZ) (Vibrio cholerae [25]): 8 mm
O=C(NCC(=O)N1c2ccccc2Sc2ccccc21)NN1C(=O)C(Cl)C1c1ccc(O)cc1 (configuration not stated),250 mg/L,62.5 mg/L,500 mg/L,62.5 mg/L,125 mg/L,125 mg/L,125 mg/L,62.5 mg/L,125 mg/L,62.5 mg/L,250 mg/L,62.5 mg/L,8 mm,8 mm,10 mm,13 mm,13 mm,10 mm,9 mm,12 mm,IC50 (HeLa [30]): 84.1 µM; inhibition of growth at 100 µM (HeLa [31]): 53%; inhibition of growth at 50 µM (HeLa [32]): 37.4%; inhibition of growth at 25 µM (HeLa [33]): 19.1%; inhibition of growth at 12.5 µM (HeLa [34]): 5.04%; inhibition of growth at 6.25 µM (HeLa [35]): 0.123%; diameter of the inhibition zone (DIZ) (Pseudomonas aeruginosa [22]): 18 mm; diameter of the inhibition zone (DIZ) (Escherichia coli [23]): 5 mm; diameter of the inhibition zone (DIZ) (Salmonella paratyphi [24]): 12 mm; diameter of the inhibition zone (DIZ) (Vibrio cholerae [25]): 9 mm
COc1cc(C2C(Cl)C(=O)N2NC(=O)NCC(=O)N2c3ccccc3Sc3ccccc32)ccc1O (configuration not stated),250 mg/L,250 mg/L,250 mg/L,125 mg/L,250 mg/L,250 mg/L,250 mg/L,250 mg/L,125 mg/L,125 mg/L,125 mg/L,125 mg/L,4 mm,5 mm,7 mm,10 mm,5 mm,6 mm,7 mm,8 mm,diameter of the inhibition zone (DIZ) (Pseudomonas aeruginosa [22]): 10 mm; diameter of the inhibition zone (DIZ) (Escherichia coli [23]): 10 mm; diameter of the inhibition zone (DIZ) (Salmonella paratyphi [24]): 10 mm; diameter of the inhibition zone (DIZ) (Vibrio cholerae [25]): 10 mm
